Molecular target: T1, vanilloid receptor 1 (VR1/TRPV1 receptor) (Homo sapiens, UniProt Q8NER1)
T1 construct: expressed in transfected cells; host or cells: CHO K1
Test: Functional testing on the vanilloid receptor 1 (FLIPR Ca2+ influx assay, capsaicin stimulation)
Type: cell-based
Settings: capsaicin (CAP) 100 nM; for inhibition at 1 µM: @ 1 µM test compound; for inhibition at 1 µM / inhibition at 5 µM: relative to maximum achievable inhibition with 10 µM capsazepine, read-out: inhibition (in %), column (f) Ki human [nM] CAP; for inhibition at 5 µM: @ 5 µM test compound
Protocol: Furthermore, preference may be given to compounds according to the invention that cause a 50 per cent displacement of capsaicin, which is present at a concentration of 100 nM, in a FLIPR assay with CHO K1 cells which were transfected with the human VR1 gene at a concentration of less than 6,000 nM, preferably less than 5,000 nM, more preferably less that 3,000 nM or less than 1,000 nM and particularly preferably less than 300 nM, most particularly preferably less than 100 nM, even more preferably less than 75 nM, additionally preferably less than 50 nM, most preferably less than 10 nM.
In the process, the Ca^2+ influx is quantified in the FLIPR assay with the aid of a Ca^2+-sensitive dye (type Fluo-4, Molecular Probes Europe BV, Leiden, the Netherlands) in a fluorescent imaging plate reader (FLIPR, Molecular Devices, Sunnyvale, USA), as described hereinafter. […]
The FLIPR protocol consists of 2 substance additions. First the compounds to be tested (10 µM) are pipetted onto the cells and the Ca^2+ influx is compared with the control (capsaicin 10 µM). This provides the result in % activation based on the Ca^2+ signal after the addition of 10 µM of capsaicin (CP). After 5 min incubation, 100 nM of capsaicin are applied and the Ca^2+ influx is also determined. Desensitising agonists and antagonists lead to suppression of the Ca^2+ influx. The % inhibition is calculated compared to the maximum achievable inhibition with 10 µM of capsazepine.
Triple analyses (n=3) are carried out and repeated in at least 3 independent experiments (N=4). Starting from the percentage displacement caused by different concentrations of the compounds to be tested of general formula I, IC50 inhibitory concentrations which cause a 50% displacement of capsaicin were calculated.
Ki values for the test substances were obtained by conversion by means of the Cheng-Prusoff equation (Cheng, Prusoff; Biochem. Pharmacol. 22, 3099-3108, 1973).
The affinity of selected compounds according to the invention for the vanilloid receptor 1 (VR1/TRPV1 receptor) was determined as described hereinbefore.
The value after the "@"symbol indicates the concentration at which the indicated inhibition (in %) was respectively determined.

[1] = functional (f), Ki from IC50 by Cheng-Prusoff equation, "ne" = did not show any effect in this assay

T1 sequence (Q8NER1 whole entry): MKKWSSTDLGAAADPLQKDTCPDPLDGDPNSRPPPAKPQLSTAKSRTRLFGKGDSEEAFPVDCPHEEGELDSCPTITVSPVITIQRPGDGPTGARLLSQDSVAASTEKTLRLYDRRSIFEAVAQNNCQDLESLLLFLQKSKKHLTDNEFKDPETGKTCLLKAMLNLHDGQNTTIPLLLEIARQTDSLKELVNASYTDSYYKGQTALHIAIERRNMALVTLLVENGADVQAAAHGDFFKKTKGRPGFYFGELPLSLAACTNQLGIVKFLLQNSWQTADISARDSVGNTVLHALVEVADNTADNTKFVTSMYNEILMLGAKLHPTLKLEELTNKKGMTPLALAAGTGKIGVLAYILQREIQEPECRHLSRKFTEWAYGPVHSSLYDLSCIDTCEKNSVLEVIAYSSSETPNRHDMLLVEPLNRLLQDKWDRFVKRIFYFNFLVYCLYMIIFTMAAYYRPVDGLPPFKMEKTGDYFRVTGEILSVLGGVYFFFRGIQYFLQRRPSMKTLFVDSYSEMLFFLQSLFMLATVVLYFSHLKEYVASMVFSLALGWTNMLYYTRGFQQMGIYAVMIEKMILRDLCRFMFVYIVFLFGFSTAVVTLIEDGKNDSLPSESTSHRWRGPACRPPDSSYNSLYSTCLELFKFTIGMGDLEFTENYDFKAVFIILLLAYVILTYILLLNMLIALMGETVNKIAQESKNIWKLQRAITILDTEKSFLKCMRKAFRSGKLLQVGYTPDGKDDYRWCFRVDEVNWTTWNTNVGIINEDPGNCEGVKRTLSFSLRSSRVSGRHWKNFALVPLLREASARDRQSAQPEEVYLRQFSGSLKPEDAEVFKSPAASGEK

| SMILES | (f) Ki human [nM] CAP [1] | inhibition at 1 µM [%] | inhibition at 5 µM [%] | Ki [1] [nM] |
| --- | --- | --- | --- | --- |
| CC1CCN(c2nc(C(F)(F)F)ccc2CNC(=O)NC2CCc3ccccc32)CC1 (stereo not drawn) [compound 1, 1-(2,3-dihydro-1H-inden-1-yl)-3-((2-(4-methylpiperidin-1-yl)-6-(trifluoromethyl)pyridin-3-yl)methyl)urea] | ne |  |  |  |
| CC1CCN(c2nc(C(F)(F)F)ccc2CNC(=O)NC2Cc3ccccc3C2)CC1 [compound 3, 1-(2,3-dihydro-1H-inden-2-yl)-3-((2-(4-methylpiperidin-1-yl)-6-(trifluoromethyl)pyridin-3-yl)methyl)urea] |  | 0 | 89 |  |
| CC1CCN(c2nc(C(F)(F)F)ccc2CNC(=O)C(C)C2CCCc3ccc(O)cc32)CC1 (stereo not drawn) [comp. no. 6, 2-(7-hydroxy-1,2,3,4-tetrahydronaphthalen-1-yl)-N-((2-(4-methylpiperidin-1-yl)-6-(trifluoromethyl)pyridin-3-yl)methyl)propanamide] |  |  |  | 28.6 |
| CC1CCN(c2nc(C(F)(F)F)ccc2CNC(=O)NC2CCCc3ccccc32)CC1 (stereo not drawn) [compound 2, 1-((2-(4-methylpiperidin-1-yl)-6-(trifluoromethyl)pyridin-3-yl)methyl)-3-(1,2,3,4-tetrahydronaphthalen-1-yl)urea] |  | 0 | 36 |  |

The next lines start with the values.

| (f) Ki human [nM] CAP [1] | inhibition at 1 µM [%] | inhibition at 5 µM [%] | Ki [1] [nM] | SMILES |
| --- | --- | --- | --- | --- |
|  | 0 | 27 |  | CC1CCN(c2nc(C(F)(F)F)ccc2CNC(=O)NC2CCCc3c2cnn3C)CC1 (stereo not drawn) [compound 5, 1-(1-methyl-4,5,6,7-tetrahydro-1H-indazol-4-yl)-3-((2-(4-methylpiperidin-1-yl)-6-(trifluoromethyl)pyridin-3-yl)methyl)urea] |
|  |  |  | 6.1 | CC1CCN(c2nc(C(F)(F)F)ccc2CNC(=O)NC2CCCc3ccc(O)cc32)CC1 (stereo not drawn) [compound 4, 1-(7-hydroxy-1,2,3,4-tetrahydronaphthalen-1-yl)-3-((2-(4-methylpiperidin-1-yl)-6-(trifluoromethyl)pyridin-3-yl)methyl)urea] |

Source: patent EP3130590A1, “AROMATIC AZA COMPOUNDS AS VR1/TRPV1 LIGANDS” (Grünenthal GmbH, priority 2015, dated 2017)
